Source: patent US20210290648A1, “Potentiation of B-Lactam Antibiotics and B-Lactam/B-Lactamase Inhibitor Combinations Against Multidrug and Extensively Drug-Resistant Pseudomonas Aeruginosa Using Non-Ribosomal Tobramycin-Cyclam Conjugates” (University of Manitoba, priority 2018, published 2021)

Assays:
E. faecalis ATCC 29212 = experiment: MIC, microbroth dilution; type: cell-based; conditions: standalone
Experimental: (§1) Antimicrobial Susceptibility Assay. The in vitro antimicrobial activity of all compounds/antibiotics against a panel of bacteria was evaluated by microbroth dilution method in accordance with the Clinical and Laboratory Standards Institute (CLSI) guidelines. Overnight grown bacterial cultures were diluted in saline to achieve a 0.5 McFarland turbidity, followed by 1:50 dilution in Mueller-Hinton broth (MHB) for inoculation to a final concentration of approximately 5×10^5CFU/mL. The antimicrobial agents were 2-fold serially diluted in MHB in a 96-well plate and incubated at 37° C. with equal volumes of inoculum for 18 h. The lowest concentration that prevented the visible growth of bacteria was defined as the MIC for each antimicrobial agent. The broth with or without bacterial cells was used as positive or negative control, respectively.

[1] = system: S. maltophilia CAN-ICU 62584; experiment: MIC, microbroth dilution; type: cell-based; conditions: standalone
Experimental: as §1

S. pneumoniae ATCC 49619 = experiment: MIC, microbroth dilution; type: cell-based; conditions: standalone
Experimental: as §1

[2] = system: MRSE CAN-ICU 61589 (CAZ >32); experiment: MIC, microbroth dilution; type: cell-based; conditions: standalone
Experimental: as §1

[3] = system: E. coli CAN-ICU 63074 (AMK 32); experiment: MIC, microbroth dilution; type: cell-based; conditions: standalone
Experimental: as §1

E. coli ATCC 25922 = experiment: MIC, microbroth dilution; type: cell-based; conditions: standalone
Experimental: as §1

[4] = system: A. baumannii CAN-ICU 63169; experiment: MIC, microbroth dilution; type: cell-based; conditions: standalone
Experimental: as §1

[5] = system: E. coli CAN-ICU 61714 (GEN-R); experiment: MIC, microbroth dilution; type: cell-based; conditions: standalone
Experimental: as §1

S. aureus ATCC 29213 = experiment: MIC, microbroth dilution; type: cell-based; conditions: standalone
Experimental: as §1

MSSE CANWARD-2008 81388 = experiment: MIC, microbroth dilution; type: cell-based; conditions: standalone
Experimental: as §1

[6] = system: E. coli CANWARD-2011 97615 (GEN-R, TOB-R, CIP-R) aac(3′)iia; experiment: MIC, microbroth dilution; type: cell-based; conditions: standalone; E. coli CANWARD-2011 97615 (GEN-R, TOB-R, CIP-R)
Experimental: as §1

MRSA ATCC 33592 = experiment: MIC, microbroth dilution; type: cell-based; conditions: standalone
Experimental: as §1

E. faecium ATCC 27270 = experiment: MIC, microbroth dilution; type: cell-based; conditions: standalone
Experimental: as §1

[7] = system: P. aeruginosa CANWARD-2011 96846 (GEN-R, TOB-R); experiment: MIC, microbroth dilution; type: cell-based, Pseudomonas aeruginosa; conditions: standalone
Experimental: as §1

[8] = system: P. aeruginosa CAN-ICU 62308 (GEN-R); experiment: MIC, microbroth dilution; type: cell-based, Pseudomonas aeruginosa; conditions: standalone
Experimental: as §1

P. aeruginosa ATCC 27853 = experiment: MIC, microbroth dilution; type: cell-based, Pseudomonas aeruginosa; conditions: standalone
Experimental: as §1

K. pneumoniae ATCC 13883 = experiment: MIC, microbroth dilution; type: cell-based, Klebsiella pneumoniae; conditions: standalone
Experimental: as §1

[9] = system: human liver carcinoma (HepG2) cells; experiment: Cytotoxicity, PrestoBlue cell viability assay; type: cell-based; conditions: at about 12 μM (6.5 μg/mL), positive control
Experimental: Cytotoxicity Assay. Human embryonic kidney cells (HEK293) and HepG2 cells were grown in Dulbecco's modified eagle's medium supplemented with 10% fetal bovine serum in a humidified […] incubator at 37° C. Equal number of cells (100 μl of media containing ˜8000 cells) were dispersed into 96-well plates and wells with medium but no cells were used as blanks. After incubating for 24 h, […] varying concentrations of test compounds (at twice the desired concentrations) were added to each well, including the blanks. The treated cells were then incubated further for 48 h, after which PrestoBlue reagent was added to each well. The plates were then incubated for an additional hour on a nutator mixer in a 5% CO2 incubator. The fluorescence was read at […] on a SpectraMax M2 plate reader (Molecular Devices, USA). Cell viability were interpreted as previously described (55, 77). The values of blank were subtracted from each value, and the viability values of the treated samples relative to the controls with vehicle were calculated. The values for the plots are the means±standard deviation.

[10] = system: human embryo kidney (HEK293) cells; experiment: Cytotoxicity, PrestoBlue cell viability assay; type: cell-based; conditions: at about 12 μM (6.5 μg/mL), positive control
Experimental: Cytotoxicity Assay. Human embryonic kidney cells (HEK293) and HepG2 cells were grown in Dulbecco's modified eagle's medium supplemented with 10% fetal bovine serum in a humidified 5% atmospheric incubator at 37° C. […] The fluorescence was read at […] on a SpectraMax M2 plate reader (Molecular Devices, USA). […] The values of blank were subtracted from each value, and the viability values of the treated samples relative to the controls with vehicle were calculated. The values for the plots are the means±standard deviation.

MIC (E. faecalis ATCC 29212) [µg/mL] | MIC [1] [µg/mL] | MIC (S. pneumoniae ATCC 49619) [µg/mL] | MIC [2] [µg/mL] | MIC [3] [µg/mL] | MIC (E. coli ATCC 25922) [µg/mL] | MIC [4] [µg/mL] | MIC [5] [µg/mL] | MIC (S. aureus ATCC 29213) [µg/mL] | MIC (MSSE CANWARD-2008 81388) [µg/mL] | MIC [6] [µg/mL] | MIC (MRSA ATCC 33592) [µg/mL] | MIC (E. faecium ATCC 27270) [µg/mL] | MIC [7] [µg/mL] | MIC [8] [µg/mL] | MIC (P. aeruginosa ATCC 27853) [µg/mL] | MIC (K. pneumoniae ATCC 13883) [µg/mL] | Compound | cell viability [9] | cytotoxicity of cells reduced to [10]
>128 | >128 | >128 | 64 | >128 | 64 | >128 | 128 | 64 | 16 | >128 | 64 | >128 | >128 | >128 | >128 | 32 | NCC1OC(OC2C(N)CC(N)C(OC3OC(CO)C(O)C(N)C3O)C2OCCCCN2CCCNCCNCCCNCC2)C(N)CC1O.O=C(O)C(F)(F)F.O=C(O)C(F)(F)F.O=C(O)C(F)(F)F.O=C(O)C(F)(F)F.O=C(O)C(F)(F)F.O=C(O)C(F)(F)F.O=C(O)C(F)(F)F.O=C(O)C(F)(F)F.O=C(O)C(F)(F)F (stereo not shown) [Compound 1, 5-O-(Butylcyclam)-tobramycin.9TFA] | – | –
– | – | – | – | – | – | – | – | – | – | – | – | – | – | – | – | – | COc1cccc2c1C(=O)c1c(O)c3c(c(O)c1C2=O)C[C@@](O)(C(=O)CO)C[C@@H]3O[C@H]1C[C@H](N)[C@H](O)[C@H](C)O1 [Doxorubicin] | less than 10% | less than 10%
